Measured values: patent US9512075B2 (OKAYAMA UNIVERSITY, priority 2012, dated 2016)
Converted amounts (≈) assume the structure as drawn. Where two headings read alike, the source gives them in different places.

Columns and labels:
Format in all cases: cell-based
[1] = test system: Staphylococcus aureus Smith strain; assay: MIC for Staphylococcus aureus Smith strain; details: read-out: MIC Straphyrococcus aureus Smith
[2] = test system: Staphylococcus aureus 209P strain; assay: MIC for Staphylococcus aureus 209P strain; details: Staphylococcus aureus, read-out: MIC Straphyrococcus aureus 209P
[3] = test system: Staphylococcus aureus MRSA No. 17 (methicillin-resistant Staphylococcus aureus: MRSA); assay: MIC for Staphylococcus aureus MRSA No. 17; details: read-out: MIC Straphyrococcus aureus MRSA No. 17 (MRSA)
[4] = test system: Enterococcus faecalis 5038 strain; assay: MIC for Enterococcus faecalis 5038 strain; details: read-out: MIC Enterococcus faecalis 5038
[5] = test system: Enterococcus faecalis NCTC12201 strain (vancomycin-resistant Enterococcus: VRE); assay: MIC for Enterococcus faecalis NCTC12201 strain (VRE); details: read-out: MIC Enterococcus faecalis NCTC 12201 (VRE)
[6] = test system: Clostridium difficile JCM1296 strain; assay: microbe, parasite or virus in culture; details: Clostridioides difficile, JCM1296, read-out: MIC Clostridium difficile JCM1296
[7] = test system: Clostridium perfringens PB6K strain; assay: microbe, parasite or virus in culture; details: Clostridium perfringens, PB6KSTRAIN, read-out: MIC Clostridium perfringens PB6K, PB6K strain; CD medium, 37° C. overnight, 10% CO2-containing anaerobic conditions
[8] = test system: Escherichia coli K-12 strain; assay: MIC for Escherichia coli K-12 strain; details: Escherichia coli, K12STRAIN, read-out: MIC Escherichia coli K12
[9] = test system: Escherichia coli BE1121 strain; assay: MIC for Escherichia coli BE1121 strain; details: Escherichia coli, BE1121STRAIN, read-out: MIC Escherichia coli BE1121
[10] = Smith strain, regular bouillon medium, 37° C. overnight, turbidity
[11] = 209P strain, regular bouillon medium, 37° C. overnight, turbidity
[12] = MRSA No. 17, regular bouillon medium, 37° C. overnight, turbidity
[13] = 5038 strain, Heart Infusion Broth medium, 37° C. overnight, turbidity
[14] = NCTC12201 strain (VRE), Heart Infusion Broth medium, 37° C. overnight, turbidity
[15] = K-12 strain, regular bouillon medium, 37° C. overnight, turbidity
[16] = BE1121 strain, regular bouillon medium, 37° C. overnight, turbidity

Row | Compound | MIC [1, 10] [µg/mL] | MIC [2, 11] [µg/mL] | MIC [3, 12] [µg/mL] | MIC [4, 13] [µg/mL] | MIC [5, 14] [µg/mL] | MIC [6] [µg/mL] | MIC [7] [µg/mL] | MIC [8, 15] [µg/mL] | MIC [9, 16] [µg/mL] | MIC [1] [µg/mL] | MIC ([3]; MRSA) [µg/mL] | MIC ([4]; 5038STRAIN) [µg/mL] | MIC [5] [µg/mL] | MIC ([2]; 209P) [µg/mL] | MIC [8] [µg/mL] | MIC [9] [µg/mL]
1 | CCCCCCCCCC(=O)N[C@@H](C)C(=O)c1c(O)c2ccccc2oc1=O [B011, 3-(2-decanoylaminopropionyl)-4-hydroxycoumarin] | 256 (≈ 661 µM) | 256 (≈ 661 µM) | 256 (≈ 661 µM) | 256 (≈ 661 µM) | 256 (≈ 661 µM) | 2 (≈ 5.16 µM) | 1 (≈ 2.58 µM) | 256 (≈ 661 µM) | 256 (≈ 661 µM) | – | – | – | – | – | – | –
2 | CCCCCCCCOCC(O)=C1C(=O)N(C(C)=O)c2ccccc21 [A057, N-acetyl-3-octyloxyacetyl-2-oxyindole] | 1 (≈ 2.89 µM) | 8 (≈ 23.2 µM) | 16 (≈ 46.3 µM) | 1 (≈ 2.89 µM) | 2 (≈ 5.79 µM) | 0.25 (≈ 0.724 µM) | 0.5 (≈ 1.45 µM) | 128 (≈ 371 µM) | 128 (≈ 371 µM) | – | – | – | – | – | – | –
3 | CCCCCCCCCC(O)=C1C(=O)N(C(=O)Nc2ccccc2C(F)(F)F)c2ccccc21 [A054, N-(2-(trifluoromethyl)phenylaminocarbonyl)-3-decanoyl-2-oxyindole] | 0.5 (≈ 1.05 µM) | 2 (≈ 4.21 µM) | 2 (≈ 4.21 µM) | 1 (≈ 2.11 µM) | 1 (≈ 2.11 µM) | < 0.125 | < 0.125 | 256 (≈ 539 µM) | 256 (≈ 539 µM) | – | – | – | – | – | – | –
4 | O=C(Nc1ccccc1)N1C(=O)C(=C(O)CCCCCCCCCBr)c2ccccc21 [A025, N-(phenylaminocarbonyl)-3-(10-bromodecanoyl)-2-oxyindole] | 2 (≈ 4.12 µM) | 256 (≈ 527 µM) | 256 (≈ 527 µM) | 0.5 (≈ 1.03 µM) | 0.5 (≈ 1.03 µM) | 0.5 (≈ 1.03 µM) | 1 (≈ 2.06 µM) | 256 (≈ 527 µM) | 256 (≈ 527 µM) | – | – | – | – | – | – | –
5 | CCCCCCCCCCOC(C)C(O)=C1C(=O)N(C(=O)Nc2ccccc2)c2ccccc21 (stereo not drawn) [A021, N-(phenylaminocarbonyl)-3-(2-decyloxypropionyl)-2-oxyindole] | 0.5 (≈ 1.08 µM) | 128 (≈ 276 µM) | 256 (≈ 551 µM) | 0.5 (≈ 1.08 µM) | 0.5 (≈ 1.08 µM) | 1 (≈ 2.15 µM) | 2 (≈ 4.3 µM) | 256 (≈ 551 µM) | 256 (≈ 551 µM) | – | – | – | – | – | – | –
6 | O=C(NCC(=O)c1c(O)c2ccccc2oc1=O)c1ccccc1 [B013, 3-benzoylaminoacetyl-4-hydroxycoumarin] | 256 (≈ 792 µM) | 256 (≈ 792 µM) | 256 (≈ 792 µM) | 256 (≈ 792 µM) | 256 (≈ 792 µM) | 128 (≈ 396 µM) | 128 (≈ 396 µM) | 256 (≈ 792 µM) | 256 (≈ 792 µM) | – | – | – | – | – | – | –
7 | CCCCc1ccc(COCC(=O)c2c(O)c3ccccc3oc2=O)cc1 [B024, 3-(4-butylphenylmethoxyl)acetyl-4-hydroxycoumarin] | – | 4 (≈ 10.9 µM) | – | – | – | 0.25 (≈ 0.682 µM) | 1 (≈ 2.73 µM) | 256 (≈ 699 µM) | 2 (≈ 5.46 µM) | 8 (≈ 21.8 µM) | 64 (≈ 175 µM) | 2 (≈ 5.46 µM) | 2 (≈ 5.46 µM) | – | – | –
8 | CCCCCCCCCC(=O)c1c(O)c2cc(C)ccc2oc1=O [B012, 3-decanoyl-6-methyl-4-hydroxycoumarin] | 0.5 (≈ 1.51 µM) | 0.5 (≈ 1.51 µM) | 0.5 (≈ 1.51 µM) | 0.25 (≈ 0.757 µM) | 0.25 (≈ 0.757 µM) | 0.25 (≈ 0.757 µM) | 0.5 (≈ 1.51 µM) | 256 (≈ 775 µM) | 256 (≈ 775 µM) | – | – | – | – | – | – | –
9 | CCCCCCCCCC(O)=C1C(=O)N(C(=O)Nc2ccc(F)cc2)c2ccccc21 [A042, N-(4-fluorophenylaminocarbonyl)-3-decanoyl-2-oxyindole] | 0.5 (≈ 1.18 µM) | 256 (≈ 603 µM) | 256 (≈ 603 µM) | 2 (≈ 4.71 µM) | 4 (≈ 9.42 µM) | < 0.125 | 1 (≈ 2.36 µM) | 256 (≈ 603 µM) | 256 (≈ 603 µM) | – | – | – | – | – | – | –
10 | CCCCC1CCC(C(O)=C2C(=O)N(C(=O)OC(C)(C)C)c3ccc(F)cc32)CC1 (stereo not drawn) [A027, N-Boc-3-(4-butylcyclohexylcarbonyl)-5-fluoro-2-oxyindole] | 16 (≈ 38.3 µM) | 128 (≈ 307 µM) | 128 (≈ 307 µM) | 8 (≈ 19.2 µM) | 8 (≈ 19.2 µM) | 1 (≈ 2.4 µM) | 2 (≈ 4.79 µM) | 128 (≈ 307 µM) | 128 (≈ 307 µM) | – | – | – | – | – | – | –
11 | CCCCCCCCCC(=O)N1C(=O)C(=C(O)c2ccc(OC)cc2)c2ccccc21 [A062, N-decanoyl-3-(4-methoxybenzoyl)-2-oxyindole] | – | 128 (≈ 304 µM) | – | – | – | 4 (≈ 9.49 µM) | 8 (≈ 19 µM) | 256 (≈ 607 µM) | 256 (≈ 607 µM) | 2 (≈ 4.74 µM) | 16 (≈ 38 µM) | 2 (≈ 4.74 µM) | 2 (≈ 4.74 µM) | – | – | –
12 | CCCCC1CCC(C(O)=C2C(=O)N(C(=O)Nc3ccccc3)c3ccccc32)CC1 (stereo not drawn) [A016, N-(phenylaminocarbonyl)-3-(4-butylcyclohexylcarbonyl)-2-oxyindole] | 4 (≈ 9.56 µM) | 128 (≈ 306 µM) | 256 (≈ 612 µM) | 1 (≈ 2.39 µM) | 0.5 (≈ 1.19 µM) | 0.25 (≈ 0.597 µM) | 4 (≈ 9.56 µM) | 256 (≈ 612 µM) | 256 (≈ 612 µM) | – | – | – | – | – | – | –
13 | CCCCCCCCCC(O)=C1C(=O)N(C(=O)Nc2ccc(OC)cc2)c2ccc(F)cc21 [A048, N-(4-methoxyphenylaminocarbonyl)-3-decanoyl-5-fluoro-2-oxyindole] | – | 256 (≈ 563 µM) | – | 128 (≈ 282 µM) | – | 32 (≈ 70.4 µM) | 256 (≈ 563 µM) | 256 (≈ 563 µM) | 256 (≈ 563 µM) | 256 (≈ 563 µM) | 256 (≈ 563 µM) | – | 256 (≈ 563 µM) | – | – | –
14 | CCCCCCCCCCSCC(O)=C1C(=O)N(C(=O)Nc2ccccc2)c2ccc(F)cc21 [A037, N-(phenylaminocarbonyl)-3-decylthioacetyl-5-fluoro-2-oxyindole] | 0.25 (≈ 0.516 µM) | 2 (≈ 4.13 µM) | 2 (≈ 4.13 µM) | 0.5 (≈ 1.03 µM) | 0.5 (≈ 1.03 µM) | 0.5 (≈ 1.03 µM) | 1 (≈ 2.06 µM) | 256 (≈ 528 µM) | 256 (≈ 528 µM) | – | – | – | – | – | – | –
15 | CCCCCCCCCC(O)=C1C(=O)N(C(=O)Nc2ccc(OC(F)(F)F)cc2)c2ccccc21 [A053, N-(4-(trifluoromethoxy)phenylaminocarbonyl)-3-decanoyl-2-oxyindole] | 256 (≈ 522 µM) | 256 (≈ 522 µM) | 256 (≈ 522 µM) | 128 (≈ 261 µM) | 128 (≈ 261 µM) | 16 (≈ 32.6 µM) | 32 (≈ 65.2 µM) | 128 (≈ 261 µM) | 128 (≈ 261 µM) | – | – | – | – | – | – | –
16 | CCCCCCCCCC(=O)N1C(=O)C(=C(O)c2ccc(Cl)cc2)c2ccccc21 [A060, N-decanoyl-3-(4-chlorobenzoyl)-2-oxyindole] | – | 64 (≈ 150 µM) | – | – | – | 0.5 (≈ 1.17 µM) | 1 (≈ 2.35 µM) | 128 (≈ 301 µM) | 128 (≈ 301 µM) | 1 (≈ 2.35 µM) | 16 (≈ 37.6 µM) | 1 (≈ 2.35 µM) | 1 (≈ 2.35 µM) | – | – | –
17 | CCCCCOCC(=O)c1c(O)c2ccccc2oc1=O [B021, 4-hydroxy-3-(pentyloxyacetyl)coumarin] | – | – | – | – | – | 8 (≈ 27.6 µM) | 32 (≈ 110 µM) | – | – | 128 (≈ 441 µM) | 123 (≈ 424 µM) | 32 (≈ 110 µM) | 64 (≈ 220 µM) | 32 (≈ 110 µM) | 128 (≈ 441 µM) | 16 (≈ 55.1 µM)
18 | CCCCCCCCCC(=O)NCC(O)=C1C(=O)N(C(=O)OC(C)(C)C)c2ccccc21 [A011, N-Boc-3-decanoylaminoacetyl-2-oxyindole] | 128 (≈ 288 µM) | 256 (≈ 576 µM) | 256 (≈ 576 µM) | 256 (≈ 576 µM) | 256 (≈ 576 µM) | 2 (≈ 4.5 µM) | 2 (≈ 4.5 µM) | 128 (≈ 288 µM) | 128 (≈ 288 µM) | – | – | – | – | – | – | –
19 | CCCCCCCCCC(O)=C1C(=O)N(C(=O)Nc2ccccc2)c2ccc(Br)cc21 [A033, N-(phenylaminocarbonyl)-5-bromo-3-decanoyl-2-oxyindole] | 256 (≈ 527 µM) | 256 (≈ 527 µM) | 256 (≈ 527 µM) | 256 (≈ 527 µM) | 256 (≈ 527 µM) | 0.5 (≈ 1.03 µM) | 0.5 (≈ 1.03 µM) | 256 (≈ 527 µM) | 128 (≈ 264 µM) | – | – | – | – | – | – | –
20 | CCCCCCCCCCOCC(O)=C1C(=O)N(C(=O)Nc2ccc(OC)cc2)c2ccc(F)cc21 [A047, N-(4-methoxyphenylaminocarbonyl)-3-decyloxyacetyl-5-fluoro-2-oxyindole] | 8 (≈ 16 µM) | 128 (≈ 257 µM) | 128 (≈ 257 µM) | 4 (≈ 8.02 µM) | 16 (≈ 32.1 µM) | 1 (≈ 2.01 µM) | 0.25 (≈ 0.501 µM) | 128 (≈ 257 µM) | 128 (≈ 257 µM) | – | – | – | – | – | – | –
21 | CCCCCCCCCC(O)=C1C(=O)Nc2cc(Cl)ccc21 [A002, 3-decanoyl-6-chloro-2-oxyindole] | 16 (≈ 49.7 µM) | – | 16 (≈ 49.7 µM) | 16 (≈ 49.7 µM) | 15 (≈ 46.6 µM) | 32 (≈ 99.4 µM) | 32 (≈ 99.4 µM) | – | – | – | – | – | – | 16 (≈ 49.7 µM) | 128 (≈ 398 µM) | 128 (≈ 398 µM)
22 | CCCCCCCCCCOCC(O)=C1C(=O)N(C(=O)Nc2ccccc2)c2ccccc21 [A019, N-(phenylaminocarbonyl)-3-decyloxyacetyl-2-oxyindole] | 4 (≈ 8.88 µM) | 256 (≈ 568 µM) | 256 (≈ 568 µM) | 1 (≈ 2.22 µM) | 4 (≈ 8.88 µM) | 0.5 (≈ 1.11 µM) | 2 (≈ 4.44 µM) | 256 (≈ 568 µM) | 128 (≈ 284 µM) | – | – | – | – | – | – | –
